US20240285634A1, “COMPOUND AND METHOD FOR TREATING CHEMOTHERAPY-ASSOCIATED GASTROINTESTINAL SIDE EFFECTS” (ONQUALITY PHARMACEUTICALS CHINA LTD., priority 2021, published 2024)
Structures can show the parent of a compound that is named as a salt.

Tested on: Chemotherapeutic agent-caused diarrhea models of Balb/c mice
Assay: Relieving effect on diarrhea caused by a chemotherapeutic agent (Examples 1-201)
Format: in vivo
Description: Construction of mouse animal models: Chemotherapeutic agent-caused diarrhea models of Balb/c mice were constructed according to the administration mode and frequency of the chemotherapeutic agent as shown in Table 3. After administration for several days, mice developed different extents of diarrhea symptoms (as shown in FIG. 1), which were similar to the conditions in human. Thus, chemotherapeutic agent-caused diarrhea models of mice are very good models to mimic diarrhea in human caused by the chemotherapeutic agent.
Balb/c mice were fed for 1 week, and then divided into groups. The experiment was divided into a control group, a chemotherapeutic agent group, and a group of the compound as shown in Formula I, each of which comprised 10 mice, to perform the administration experiment, for which the administration dosage, mode, time and frequency were shown in Table 3. The control group: being injected or intragastrically administered with the same solvent as that used in the group of the compound as shown in Formula I (the injection mode and time were shown in Table 3), and then being injected or intragastrically administered with the same solvent as that used in the chemotherapeutic agent group (the administration mode was shown in Table 3); the chemotherapeutic agent group: being injected or intragastrically administered with the same solvent as that used in the group of the compound as shown in Formula I (the administration mode and time were shown in Table 3), and then being injected or intragastrically administered with the chemotherapeutic agent (the type, administration mode and dosage were shown in Table 3); the group of the compound as shown in Formula I: being injected or intragastrically administered with the compound as shown in Formula I (the administration mode and time were shown in Table 3), and then being administered with the chemotherapeutic agent (the administration mode and dosage were shown in Table 3).
The scoring of diarrhea can refer to the method of Akinobu Kurita (Cancer Chemother Pharmacol 2000; 46:211-20.), Grade 0: normal feces; Grade 1: mild diarrhea, the stools is slightly wet and soft; Grade 2: moderate diarrhea, loose stools and mild perianal contamination; Grade 3: severe diarrhea, watery stools and accompanied by severe perianal staining (see FIG. 1). It is regarded as effective remission when the diarrhea grading of mice in the group of the compound as shown in Formula I is reduced compared with the average diarrhea grading of mice in the chemotherapeutic agent group.
The diarrhea grading of mice was observed and recorded every day. At the end of the experiment, the number of mice in the group of the compound as shown in Formula I whose diarrhea grading was lower than that of mice in the chemotherapeutic agent group was recorded. Table 3 lists various animal experiment combinations of chemotherapeutic agents and the compound as shown in Formula I, as well as the corresponding experimental results. (Relative remission rate %=the number of mice in the group of the compound as shown in Formula I whose diarrhea has been effectively relieved/the total number of mice in the group of the compound as shown in Formula I*100%. The establishment rate of diarrhea model in the chemotherapeutic agent group was 50%-70%, that is, about 5-7 of 10 mice developed diarrhea during the experiment, and there were cases of individual mice death or not developing diarrhea.)

## CC(C)N1CCN(c2ccc(Nc3ncc4cc5n(c4n3)C3(CCCCC3)CNC5=O)nc2)CC1 [Compound IV hydrochloride, Lerociclibdihydrochloride]
Ex 115, Irinotecan (CPT-11) 240 mg/kg intraperitoneal single, compound 100 mg/kg intraperitoneal single 0.5 h before, cycle 11 days
  Relative remission rate: 40%
Ex 116, Irinotecan (CPT-11) 240 mg/kg intraperitoneal single, compound 100 mg/kg intraperitoneal single 4 h before, cycle 11 days
  Relative remission rate: 60%
Ex 117, Irinotecan (CPT-11) 240 mg/kg intraperitoneal single, compound 100 mg/kg intraperitoneal single 12 h before, cycle 11 days
  Relative remission rate: 20%
Ex 188, Fluorouracil 50 + oxaliplatin 5 + irinotecan 50 + tetrahydrofolic acid 90 mg/kg intravenous single, compound 100 mg/kg intraperitoneal single 0.5 h before, cycle 7 days
  Relative remission rate: 70%
Ex 189, Fluorouracil 50 + oxaliplatin 5 + irinotecan 50 + tetrahydrofolic acid 90 mg/kg intravenous single, compound 100 mg/kg intraperitoneal single 12 h before, cycle 7 days
  Relative remission rate: 50%
Ex 201, Gemcitabine 120 + carboplatin 5 mg/kg intravenous single, compound 100 mg/kg oral single 24 h before, cycle 8 days
  Relative remission rate: 40%
